The source made the active and inactive calls. No cut-off for these calls is given here.
What was measured:
MIA PaCa-2 [1] = experiment: Growth inhibition of human MIAPaCa2 cells assessed as decrease in cell number at 1 uM incubated for 72 hrs in presence of 1 uM OGF by MTS assay relative to control; assay type: functional; details: MIA PaCa-2, 72 h, read-out: GI
MIA PaCa-2 [2] = experiment: Growth inhibition of human MIAPaCa2 cells assessed as decrease in cell number at 1 uM incubated for 24 to 96 hrs in presence of 1 uM OGF by MTS assay relative to control; assay type: functional; set-up: scale not given: the % may be the effect or the level left
MIA PaCa-2 [3] = experiment: Growth inhibition of human MIAPaCa2 cells assessed as decrease in cell number at 10 uM incubated for 96 hrs in presence of 1 uM OGF by MTS assay relative to control; assay type: functional
MIA PaCa-2 [4] = experiment: Growth inhibition of human MIAPaCa2 cells assessed as decrease in cell number at 1 uM incubated for 48 hrs in presence of 1 uM OGF by MTS assay relative to control; assay type: functional; details: MIA PaCa-2, 48 h, read-out: GI
MIA PaCa-2 [5] = experiment: Growth inhibition of human MIAPaCa2 cells assessed as decrease in cell number at 10 uM incubated for 72 hrs in presence of 1 uM OGF by MTS assay relative to control; assay type: functional
MIA PaCa-2 [6] = experiment: Growth inhibition of human MIAPaCa2 cells assessed as decrease in cell number at 1 uM incubated for 24 hrs in presence of 1 uM OGF by MTS assay relative to control; assay type: functional; details: MIA PaCa-2, 24 h, read-out: GI
MIA PaCa-2 [7] = experiment: Growth inhibition of human MIAPaCa2 cells assessed as decrease in cell number at 10 uM incubated for 48 hrs in presence of 1 uM OGF by MTS assay relative to control; assay type: functional
MIA PaCa-2 [8] = experiment: Growth inhibition of human MIAPaCa2 cells assessed as decrease in cell number at 1 uM incubated for 48 to 96 hrs by MTS assay relative to control; assay type: functional; set-up: scale not given: the % may be the effect or the level left
MIA PaCa-2 [9] = experiment: Growth inhibition of human MIAPaCa2 cells assessed as decrease in cell number at 10 uM incubated for 24 hrs in presence of 1 uM OGF by MTS assay relative to control; assay type: functional
UMSCC1 [10] = experiment: Inhibition of DNA synthesis in human UM-SCC-1 cells assessed as reduction in BrdU incorporation at 0.01 uM in presence of 1 uM OGF incubated for 72 hrs by fluorescence microscopy; assay type: functional
UMSCC1 [11] = experiment: Induction of apoptosis in human UM-SCC-1 cells assessed as increase in caspse-3 levels at 0.01 uM incubated for 1 day by flow cytometry; assay type: functional, cell-based
UMSCC1 [12] = experiment: Antitumor activity against human UM-SCC-1 cells xenografted in nu/nu mouse assessed as reduction in tumor at 8 mg/kg dosed every other day and co-treated with 10 mg/kg/day OGF measured on 4th day of measurable tumors relative to control; assay type: functional; set-up: scale not given: the % may be the effect or the level left
UMSCC1 [13] = experiment: Antitumor activity against human UM-SCC-1 cells xenografted in nu/nu mouse assessed as latency time for measurable (62.5 mm3) tumors at 8 mg/kg dosed every other day (Rvb <=2 weeks); assay type: functional
CAL-27 [14] = experiment: Growth inhibition of human CAL27 cells assessed as decrease in cell number at 0.0001 uM with drug and media changed daily in presence of 1 uM OGF incubated for 48 hrs by MTS assay relative to control; assay type: functional
UMSCC1 [15] = experiment: Growth inhibition of human UM-SCC-1 cells assessed as decrease in cell number at 0.01 uM in presence of 1 uM OGF incubated for 48 hrs followed by compound wash out by 50% replacement of media and measured after 48 hrs by MTS assay relative to control; assay type: functional, cell-based
UMSCC1 [16] = experiment: Growth inhibition of human UM-SCC-1 cells assessed as decrease in cell number at 0.01 uM in presence of 1 uM OGF incubated for 48 hrs by MTS assay relative to control; assay type: functional
UMSCC1 [17] = experiment: Growth inhibition of human UM-SCC-1 cells assessed as decrease in cell number at 0.01 uM incubated for 96 hrs in presence of 1 uM OGF by MTT assay relative to control; assay type: functional
UMSCC1 [18] = experiment: Antitumor activity against human UM-SCC-1 cells xenografted in nu/nu mouse assessed as reduction in tumor at 8 mg/kg dosed every other day and co-treated with 10 mg/kg/day OGF measured on 6th day of measurable tumors relative to control; assay type: functional; set-up: scale not given: the % may be the effect or the level left
CAL-27 [19] = experiment: Growth inhibition of human CAL27 cells assessed as decrease in cell number at 0.0001 uM with drug and media changed daily incubated for 48 hrs by MTS assay relative to control; assay type: functional; details: CAL-27, 48 h, read-out: GI
UMSCC1 [20] = experiment: Growth inhibition of human UM-SCC-1 cells assessed as decrease in cell number at 0.1 uM incubated for 96 hrs in presence of 1 uM OGF by MTT assay relative to control; assay type: functional
UMSCC1 [21] = experiment: Antitumor activity against human UM-SCC-1 cells xenografted in nu/nu mouse assessed as mouse mortality at 8 mg/kg dosed every other day measured on day 40 co-treated with 10 mg/kg/day OGF relative to control; assay type: functional, organism-based
UMSCC1 [22] = experiment: Antitumor activity against human UM-SCC-1 cells xenografted in nu/nu mouse assessed as mouse mortality at 8 mg/kg dosed every other day measured on day 19 relative to control; assay type: functional, organism-based
UMSCC1 [23] = experiment: Growth inhibition of human UM-SCC-1 cells assessed as decrease in cell number at 0.01 uM in presence of 1 uM OGF and 1 uM opioid antagonist naloxone incubated for 24 to 96 hrs by MTS assay relative to control; assay type: functional
UMSCC1 [24] = experiment: Antitumor activity against human UM-SCC-1 cells xenografted in nu/nu mouse assessed as reduction in tumor at 8 mg/kg dosed every other day and co-treated with 10 mg/kg/day OGF measured on 22nd to 36th day of measurable tumors relative to control; assay type: functional, organism-based
UMSCC1 [25] = experiment: Antitumor activity against human UM-SCC-1 cells xenografted in nu/nu mouse assessed as reduction in tumor at 8 mg/kg dosed every other day and co-treated with at 10 mg/kg/day OGF measured on 16th to 20th day of measurable tumors relative to control; assay type: functional, organism-based
UMSCC1 [26] = experiment: Antitumor activity against human UM-SCC-1 cells xenografted in nu/nu mouse assessed as latency time for measurable (62.5 mm3) tumors at 8 mg/kg dosed every other day and co-treated with 10 mg/kg/day OGF (Rvb <=2 weeks); assay type: functional
[27] = Toxicity in mouse xenografted with human UM-SCC-1 cells assessed as distension of abdomens with associated megacolon at 8 mg/kg dosed every other day by histological analysis; assay type: organism-based; details: in vivo
UMSCC1 [28] = experiment: Induction of apoptosis in human UM-SCC-1 cells assessed as increase in caspse-3 levels at 0.01 uM in presence of 1 uM OGF incubated for 6 days by flow cytometry; assay type: functional
UMSCC1 [29] = experiment: Induction of apoptosis in human UM-SCC-1 cells assessed as increase in caspse-3 levels at 0.01 uM incubated for 6 days by flow cytometry; assay type: functional
UMSCC1 [30] = experiment: Growth inhibition of human UM-SCC-1 cells assessed as decrease in cell number at 0.01 uM incubated for 48 hrs followed by compound wash out by 50% replacement of media and measured after 48 hrs by MTS assay relative to control; assay type: functional, cell-based
[31] = Toxicity in mouse xenografted with human UM-SCC-1 cells assessed as induction of stool hardening at 8 mg/kg dosed every other day by histological analysis; assay type: organism-based; details: in vivo
UMSCC1 [32] = experiment: Induction of apoptosis in human UM-SCC-1 cells assessed as increase in caspse-3 levels at 0.01 uM in presence of 1 uM OGF incubated for 1 to 3 days by flow cytometry; assay type: functional
UMSCC1 [33] = experiment: Growth inhibition of human UM-SCC-1 cells assessed as decrease in cell number at 0.01 uM incubated for 72 hrs in presence of 1 uM OGF by MTT assay relative to control; assay type: functional
[34] = Toxicity in mouse xenografted with human UM-SCC-1 cells assessed as effect on large intestine/cecum/small bowel at 8 mg/kg dosed every other day by histological analysis; assay type: organism-based; details: in vivo
UMSCC1 [35] = experiment: Antitumor activity against human UM-SCC-1 cells xenografted in nu/nu mouse assessed as reduction in tumor measured on 6th day of measurable tumors at 8 mg/kg dosed every other day relative to control; assay type: functional; set-up: scale not given: the % may be the effect or the level left
UMSCC1 [36] = experiment: Growth inhibition of human UM-SCC-1 cells assessed as decrease in cell number at 0.1 uM incubated for 72 hrs in presence of 1 uM OGF by MTT assay relative to control; assay type: functional
UMSCC1 [37] = experiment: Antitumor activity against human UM-SCC-1 cells xenografted in nu/nu mouse assessed as time duration for delay in visible tumor development at 8 mg/kg dosed every other day and co-treated with 10 mg/kg/day OGF relative to control; assay type: functional
UMSCC1 [38] = experiment: Growth inhibition of human UM-SCC-1 cells assessed as decrease in cell number at 0.01 uM in presence of 1 uM OGF incubated for 96 hrs by MTS assay relative to control; assay type: functional
UMSCC1 [39] = experiment: Antitumor activity against human UM-SCC-1 cells xenografted in nu/nu mouse assessed as reduction in tumor measured on 22nd to 36th day of measurable tumors at 8 mg/kg dosed every other day relative to control; assay type: functional, organism-based
UMSCC1 [40] = experiment: Growth inhibition of human UM-SCC-1 cells assessed as decrease in cell number at 0.01 uM in presence of 1 uM OGF incubated for 72 hrs by MTS assay relative to control; assay type: functional
UMSCC1 [41] = experiment: Growth inhibition of human UM-SCC-1 cells assessed as decrease in cell number at 1 uM by MTS assay relative to control; assay type: functional, cell-based
MIA PaCa-2 [42] = experiment: Growth inhibition of human MIAPaCa2 cells assessed as decrease in cell number at 1 uM incubated for 96 hrs by MTS assay relative to control; assay type: functional

O=c1[nH]cc(F)c(=O)[nH]1 [FLUOROURACIL]
inhibition of growth at 1 µM (MIA PaCa-2 [1]): 23.6%
Activity (MIA PaCa-2 [2]): 13 - 30%
growth inhibition (GI) (MIA PaCa-2 [3]): 47.4%
inhibition of growth at 1 µM (MIA PaCa-2 [4]): 22.2%
growth inhibition (GI) (MIA PaCa-2 [5]): 39.7%
inhibition of growth at 1 µM (MIA PaCa-2 [6]): 13.2%
growth inhibition (GI) (MIA PaCa-2 [7]): 35.7%
Activity (MIA PaCa-2 [8]): 11 - 15%
growth inhibition (GI) (MIA PaCa-2 [9]): 21.5%

CC(=O)O[C@H]1C(=O)[C@@]2(C)[C@H]([C@H](OC(=O)c3ccccc3)[C@]3(O)C[C@H](OC(=O)[C@H](O)[C@@H](NC(=O)c4ccccc4)c4ccccc4)C(C)=C1C3(C)C)[C@]1(OC(C)=O)CO[C@@H]1C[C@@H]2O [PACLITAXEL]
inhibition (INH) (UMSCC1 [10]): 16%
Activity (UMSCC1 [11]): inactive
Activity (UMSCC1 [12]): 29%
Time (UMSCC1 [13]): <=12 day
growth inhibition (GI) (CAL-27 [14]): 61%
growth inhibition (GI) (UMSCC1 [15]): Active
growth inhibition (GI) (UMSCC1 [16]): 48%
growth inhibition (GI) (UMSCC1 [17]): 36.3%
Activity (UMSCC1 [18]): 29 - 33%
inhibition of growth at 0.0001 µM (CAL-27 [19]): 22 to 35%
growth inhibition (GI) (UMSCC1 [20]): 78.4%
Activity (UMSCC1 [21]): Active
Activity (UMSCC1 [22]): inactive
growth inhibition (GI) (UMSCC1 [23]): 8.8 - 26%
Activity (UMSCC1 [24]): Active
Activity (UMSCC1 [25]): Active
Time (UMSCC1 [26]): 17 days
Activity [27]: Toxic
fold change (FC) (UMSCC1 [28]): 13.9
fold change (FC) (UMSCC1 [29]): 2.7
growth inhibition (GI) (UMSCC1 [30]): Active
Activity [31]: Toxic
fold change (FC) (UMSCC1 [32]): 5.6
growth inhibition (GI) (UMSCC1 [33]): 30.6%
Activity [34]: Toxic
Activity (UMSCC1 [35]): 29 - 33%
growth inhibition (GI) (UMSCC1 [36]): 68.4%
Time (UMSCC1 [37]): 4 days
growth inhibition (GI) (UMSCC1 [38]): 69%
Activity (UMSCC1 [39]): inactive
growth inhibition (GI) (UMSCC1 [40]): 63%

NC(=O)[C@H](Cc1ccccc1)NC(=O)[C@H](Cc1ccccc1)NC(=O)[C@@H]1CCCN1C(=O)[C@@H](N)Cc1ccc(O)cc1
growth inhibition (GI) (UMSCC1 [41]): inactive
growth inhibition (GI) (MIA PaCa-2 [42]): inactive

CC(C)C[C@@H](NC(=O)[C@H](Cc1ccccc1)NC(=O)CNC(=O)[C@@H](C)NC(=O)[C@@H](N)Cc1ccc(O)cc1)C(=O)O
growth inhibition (GI) (UMSCC1 [41]): inactive
growth inhibition (GI) (MIA PaCa-2 [42]): inactive

— ChEMBL document CHEMBL4420060, “Combinatorial therapies for the treatment of neoplasias using the opioid growth factor receptor” (2013)
